In experiment [1] the target is T1, peach LTP (Prunus persica, UniProt P81402, A9S/H76S).
T1 construct: Peach LTP was purified from the skin of peach fruits; from tissue; host or cells: skin of peach fruits
Kind of experiment: CPA displacement assay (competitive, CPA as tracer). It is filed as binding. Conditions: for ΔG Peach: ΔG = -RTln(Ki). As for the experimental part: (§1) Ligand binding was assessed using a fluorescence assay based on cis-parinaric acid originally described by Cooper et al.[22]. Fluorescence intensity was measured at 25 °C with a LS55 Luminescence Spectrometer (Perkin Elmer, Cambridge, UK) using a […] slit width for both excitation (λ = 320 nm) and emission (λ = 420 nm) and the measurement taken for no longer than 1.5–2s. CPA (3 mM in ethanol) was titrated by 1 μL injections into 1 mL of LTP solutions (5 μM in 50 mM phosphate buffer pH 7.5) in a stepwise manner. Binding curves were fitted with GraphPad Prism using the rectangular hyperbolic function of Hill’s equation. For non-fluorescent ligands, a competitive assay was developed using CPA as a tracer ligand. CPA concentrations close to the calculated Kd of each LTP[49][50] (at either 1 or 0.5 μM CPA for peach LTP and 2 or 1 μM CPA for wheat LTP in 50 mM phosphate buffer pH 7.5 or pH 2.5, 150 mM NaCl, respectively) were used. After equilibrating for 2–3 min with gentle mixing, the competing non-fluorescent ligands (1 mM of palmitic acid, 16-OH palmitic acid, 12-OH stearic acid, linoleic acid or 1-palmitoyl–sn–glycerol–3–phosphatadyl choline (PC) ethanol) were titrated into the LTP solution in 1 μL aliquots. The resulting data were fitted using a sigmoidal curve-fitting logarithm in GraphPad Prism from which the concentration able to displace 50% of the CPA (IC50) was calculated. Ki values were calculated according to Cheng-Prusoff equation[51].

The target in experiment [2] is T2, wheat LTP (Triticum aestivum, UniProt P24296).
T2 construct: Intact protein (residues 1–90); from tissue; host or cells: wheat bran
T2 sequence (P24296 24-113): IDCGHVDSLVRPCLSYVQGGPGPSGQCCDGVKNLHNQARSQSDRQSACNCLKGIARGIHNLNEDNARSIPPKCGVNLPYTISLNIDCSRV
Described as above. It is filed as binding. The conditions noted are these: for Ki: Cheng-Prusoff; for ΔG Wheat: ΔG = -RTln(Ki). As for the experimental part: as §1

The target in experiment [3] is T3, wheat LTP (Triticum aestivum, UniProt P24296).
T3 construct: Intact protein (residues 1–90); from tissue; host or cells: wheat bran
T3 sequence (P24296 24-90 limits assumed): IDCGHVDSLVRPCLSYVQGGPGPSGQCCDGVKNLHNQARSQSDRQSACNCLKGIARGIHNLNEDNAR
Kind of experiment: CPA fluorescence titration, direct binding. As for the experimental part:
as §1

In experiment [4] the target is T4, peach LTP (Prunus persica, UniProt P81402).
T4 construct: Peach LTP was purified from the skin of peach fruits; from tissue; host or cells: skin of peach fruits
T4 sequence (P81402 1-91): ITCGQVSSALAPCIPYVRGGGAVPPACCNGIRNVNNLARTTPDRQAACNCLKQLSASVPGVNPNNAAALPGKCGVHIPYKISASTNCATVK
Kind of experiment: CPA fluorescence titration, direct binding. As for the experimental part:
as §1

Where [5] appears, read: 50 mM phosphate, pH 7.5, Cheng-Prusoff, read-out: Ki Peach.
The mark [6] stands for this setting: 50 mM phosphate, pH 7.5, displacement of 1 μM CPA, read-out: IC50 Peach.
[7] abbreviates: 150 mM NaCl, pH 2.5, Cheng-Prusoff, read-out: Ki Peach.
[8] abbreviates: 150 mM NaCl, pH 2.5, displacement of 0.5 μM CPA, read-out: IC50 Peach.
Setting [9] is: 50 mM phosphate, pH 7.5, displacement of 2 μM CPA.
Where [10] appears, read: 150 mM NaCl, pH 2.5, displacement of 1 μM CPA.

The source of these data is publication PMC4960534, “Ligand binding to an Allergenic Lipid Transfer Protein Enhances Conformational Flexibility resulting in an Increase in Susceptibility to Gastroduodenal Proteolysis” (Scientific Reports, 2016).

Like-named read-outs stand apart in the source and are kept apart here.

T1 sequence (P81402 whole entry A9S/H76S): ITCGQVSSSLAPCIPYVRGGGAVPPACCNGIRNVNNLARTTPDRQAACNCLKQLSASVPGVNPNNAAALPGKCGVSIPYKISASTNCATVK

Broadly, the Ki is the dissociation constant of the complex between target and ligand, obtained from inhibition or displacement. Usually IC50 stands for the point on the concentration scale where inhibition reaches its midpoint. Take “1-palmitoyl–sn–glycerol–3–phosphatadyl choline [Phosphatidyl choline]”: the Ki in experiment [1] (setting [5]) amounted to 1100 ± 20 nM; in experiment [1] (setting [7]), 1000 ± 100 nM; in experiment [2] (50 mM phosphate, pH 7.5), 4600 ± 100 nM; in experiment [2] (150 mM NaCl, pH 2.5) it was 2800 ± 100 nM. For the same molecule, the IC50 is 2200 ± 30 nM in experiment [1] (setting [6]), 1800 ± 100 nM in experiment [1] (setting [8]), 6700 ± 100 nM in experiment [2] (setting [9]) and 5300 ± 100 nM in experiment [2] (setting [10]). For the same molecule, the “ΔG Peach” value is 8.13 kcal/mol in experiment [1] (50 mM phosphate, pH 7.5) and 8.17 kcal/mol in experiment [1] (150 mM NaCl, pH 2.5). Further, the “ΔG Wheat” value worked out at 7.27 kcal/mol in experiment [2] (50 mM phosphate, pH 7.5) and 7.55 kcal/mol in experiment [2] (150 mM NaCl, pH 2.5).
The Kd is a measure of binding affinity in units of concentration. A lower Kd goes with higher affinity. Consider `CC\C=C/C=C/C=C/C=C\CCCCCCCC(=O)O` [CPA, cis-parinaric acid], for which the Kd in experiment [3] (50 mM phosphate, pH 7.5) came to 4500 ± 200 nM; in experiment [3] (150 mM NaCl, pH 2.5) it was 1200 ± 100 nM; in experiment [4] (50 mM phosphate, pH 7.5), 1000 ± 20 nM; in experiment [4] (150 mM NaCl, pH 2.5), 600 ± 100 nM.
In experiment [1], `CCCCC/C=C\C/C=C\CCCCCCCC(=O)O` [Linoleic acid, linoleic acid] had a 50% inhibitory concentration (IC50) of 1600 ± 100 nM and a Ki of 800 ± 40 nM. Also, the “ΔG Peach” value in experiment [1] (50 mM phosphate, pH 7.5) worked out at 8.29 kcal/mol. In addition, in experiment [2] (50 mM phosphate, pH 7.5), affinity was put at a Ki of 5300 ± 20 nM and the “ΔG Wheat” value was determined as 7.19 kcal/mol. This molecule also yielded an IC50 in experiment [2] (setting [9]) of 7600 ± 30 nM.
As to `CCCCCCCCCCCCCCCC(=O)O` [Palmitic acid, palmitic acid], in experiment [1], the IC50 was determined as 1400 ± 100 nM and the Ki was determined as 700 ± 30 nM. The “ΔG Peach” value in experiment [1] (50 mM phosphate, pH 7.5) worked out at 8.39 kcal/mol. For the same molecule, in experiment [2] (50 mM phosphate, pH 7.5), the Ki is 3600 ± 100 nM and the “ΔG Wheat” value was determined as 7.41 kcal/mol. This molecule yielded a 50% inhibitory concentration (IC50) in experiment [2] (setting [9]) of 5200 ± 100 nM.
In the case of `CCCCCCCCCCCCCCCC(=O)OC[C@@H](O)COP(=O)([O-])OCC[N+](C)(C)C` [Phosphatidyl choline (vesicular), 1-palmitoyl–sn–glycerol–3–phosphatadyl choline], the Ki in experiment [1] (setting [5]) is 700 ± 40 nM; in experiment [1] (setting [7]) it was 800 ± 100 nM; in experiment [2] (50 mM phosphate, pH 7.5) it was 3900 ± 100 nM; in experiment [2] (150 mM NaCl, pH 2.5) it was 3600 ± 100 nM. Also, the IC50 in experiment [1] (setting [6]) was 1500 ± 100 nM; in experiment [1] (setting [8]), 1500 ± 100 nM; in experiment [2] (setting [9]), 5600 ± 100 nM; in experiment [2] (setting [10]) it was 6800 ± 200 nM. The “ΔG Peach” value in experiment [1] (50 mM phosphate, pH 7.5) is 8.35 kcal/mol; in experiment [1] (150 mM NaCl, pH 2.5) it was 8.29 kcal/mol. Besides, the “ΔG Wheat” value was 7.37 kcal/mol in experiment [2] (50 mM phosphate, pH 7.5) and 7.41 kcal/mol in experiment [2] (150 mM NaCl, pH 2.5).
